# Data as given in ChEMBL document CHEMBL1201862, “PubChem BioAssay data set” (2004).
#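 Five concentrations, 48 hours, 96-well plates. Here, GI50 denotes the concentration required for 50% inhibition of growth.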 Calls of active or inactive are those of the source. No stated cut-off is given here; in the data, active = GI50 up to about 1.1 µM and inactive = higher.
# What was measured:
# Experiment in all cases: growth of human tumour cells (NCI), 48 h
# [1] = tested on: HCC 2998
# [2] = tested on: Malme-3M
# [3] = tested on: UO-31
# [4] = tested on: Hs-578T
# [5] = tested on: SNB-75
# [6] = tested on: HCT-116
# [7] = tested on: SN12C
# [8] = tested on: SF-539
# [9] = tested on: MDA-N
# [10] = tested on: HOP-62
# [11] = tested on: MCF7
# [12] = tested on: COLO 205
# [13] = tested on: T47D
# [14] = tested on: LOX IMVI
# [15] = tested on: EKVX
# [16] = tested on: A498
# [17] = tested on: NCI-H522
# [18] = tested on: SW-620
# [19] = tested on: RPMI-8226
# [20] = tested on: DU-145
# [21] = tested on: PC-3
# [22] = tested on: NCI/ADR-RES
# [23] = tested on: ACHN
# [24] = tested on: IGROV-1
# [25] = tested on: U-251
# [26] = tested on: HCT-15
# [27] = tested on: SK-MEL-5
# [28] = tested on: HL-60
# [29] = tested on: RXF 393
# [30] = tested on: TK-10
# [31] = tested on: HOP-92
# [32] = tested on: SNB-19
# [33] = tested on: OVCAR-3
# [34] = tested on: SK-MEL-28
# [35] = tested on: NCI-H23
# [36] = tested on: NCI-H226
# [37] = tested on: SF-295
# [38] = tested on: KM12
# [39] = tested on: UACC-62
# [40] = tested on: M14
# [41] = tested on: A549
# [42] = tested on: BT-549
# [43] = tested on: 786-0
# [44] = tested on: SK-MEL-2
# [45] = tested on: MDA-MB-231
# [46] = tested on: HT-29
# [47] = tested on: NCI-H460
# [48] = tested on: SF-268
# [49] = tested on: MOLT-4
# [50] = tested on: SR
# [51] = tested on: SK-OV-3
# [52] = tested on: OVCAR-5
# [53] = tested on: OVCAR-8
# [54] = tested on: OVCAR-4
# [55] = tested on: UACC-257
# [56] = tested on: MDA-MB-435
# [57] = tested on: K562
# [58] = tested on: CCRF-CEM
# [59] = tested on: CAKI-1
structure (smiles),measurement,setting,value
CN(C)CCNc1ccc2c(=O)n(CCN(C)C)c(=O)n3c4ccc(O)cc4c(=O)c1c23,GI50,[1],< 0.01 µM (active)
same,GI50,[2],0.0569 µM (active)
same,GI50,[3],< 0.0148 µM (active)
same,GI50,[4],0.161 µM (active)
same,GI50,[5],0.029 µM (active)
same,GI50,[6],< 0.01 µM (active)
same,GI50,[7],0.0103 µM (active)
same,GI50,[8],< 0.01 µM (active)
same,GI50,[9],0.0356 µM (active)
same,GI50,[10],< 0.01 µM (active)
same,GI50,[11],< 0.01 µM (active)
same,GI50,[12],0.0327 µM (active)
same,GI50,[13],< 0.0165 µM (active)
same,GI50,[14],< 0.0105 µM (active)
same,GI50,[15],0.183 µM (active)
same,GI50,[16],0.0611 µM (active)
same,GI50,[17],< 0.01 µM (active)
same,GI50,[18],< 0.01 µM (active)
same,GI50,[19],< 0.0104 µM (active)
same,GI50,[20],< 0.01 µM (active)
same,GI50,[21],< 0.0491 µM (active)
same,GI50,[22],0.546 µM (active)
same,GI50,[23],< 0.01 µM (active)
same,GI50,[24],0.0144 µM (active)
same,GI50,[25],< 0.0109 µM (active)
same,GI50,[26],0.045 µM
same,GI50,[27],< 0.0115 µM (active)
same,GI50,[28],< 0.01 µM (active)
same,GI50,[29],< 0.0127 µM (active)
same,GI50,[30],0.197 µM (active)
same,GI50,[31],< 0.01 µM (active)
same,GI50,[32],< 0.0212 µM (active)
same,GI50,[33],0.105 µM (active)
same,GI50,[34],0.202 µM (active)
same,GI50,[35],< 0.01 µM (active)
same,GI50,[36],< 0.01 µM (active)
same,GI50,[37],< 0.01 µM (active)
same,GI50,[38],0.122 µM (active)
same,GI50,[39],< 0.0128 µM (active)
same,GI50,[40],< 0.034 µM (active)
same,GI50,[41],< 0.01 µM (active)
same,GI50,[42],0.292 µM (active)
same,GI50,[43],< 0.01 µM (active)
same,GI50,[44],0.226 µM (active)
same,GI50,[45],< 0.0395 µM (active)
same,GI50,[46],< 0.01 µM (active)
same,GI50,[47],< 0.01 µM (active)
same,GI50,[48],< 0.0134 µM (active)
same,GI50,[49],< 0.01 µM (active)
same,GI50,[50],< 0.01 µM (active)
same,GI50,[51],< 0.022 µM (active)
same,GI50,[52],0.0775 µM (active)
same,GI50,[53],< 0.01 µM (active)
same,GI50,[54],0.106 µM (active)
same,GI50,[55],0.149 µM (active)
same,GI50,[56],0.0711 µM (active)
same,GI50,[57],< 0.01 µM (active)
same,GI50,[58],< 10 nM (active)
same,GI50,[59],< 0.01 µM (active)
Clc1cc2c(c(CSC3=NCN(CC4CC4)CN3)c1)OCOC2,GI50,[1],15.2 µM (inactive)
same,GI50,[2],18.2 µM (inactive)
same,GI50,[3],12.7 µM (inactive)
same,GI50,[4],33.7 µM (inactive)
same,GI50,[5],18.4 µM (inactive)
same,GI50,[6],18.5 µM (inactive)
same,GI50,[7],28.6 µM (inactive)
same,GI50,[8],20.3 µM (inactive)
same,GI50,[9],16.3 µM (inactive)
same,GI50,[10],21.9 µM (inactive)
same,GI50,[11],20.8 µM (inactive)
same,GI50,[12],13.6 µM (inactive)
same,GI50,[13],12.9 µM (inactive)
same,GI50,[14],25.1 µM (inactive)
same,GI50,[15],20 µM (inactive)
same,GI50,[16],20.7 µM (inactive)
same,GI50,[17],14.5 µM (inactive)
same,GI50,[18],20.5 µM (inactive)
same,GI50,[19],12.1 µM (inactive)
same,GI50,[20],26.1 µM (inactive)
same,GI50,[21],23 µM (inactive)
same,GI50,[22],20.6 µM (inactive)
same,GI50,[23],17.6 µM (inactive)
same,GI50,[24],35.9 µM (inactive)
same,GI50,[25],19.6 µM (inactive)
same,GI50,[26],21.5 µM
same,GI50,[27],17.7 µM (inactive)
same,GI50,[28],13.6 µM (inactive)
same,GI50,[29],17.3 µM (inactive)
same,GI50,[30],17.2 µM (inactive)
same,GI50,[31],37.6 µM (inactive)
same,GI50,[32],26.1 µM (inactive)
same,GI50,[33],23.4 µM (inactive)
same,GI50,[34],19.8 µM (inactive)
same,GI50,[35],17.1 µM (inactive)
same,GI50,[36],20.7 µM (inactive)
same,GI50,[37],24.6 µM (inactive)
same,GI50,[38],30.8 µM (inactive)
same,GI50,[39],17.9 µM (inactive)
same,GI50,[40],13.8 µM (inactive)
same,GI50,[41],22.8 µM (inactive)
same,GI50,[42],19.1 µM (inactive)
same,GI50,[43],19.8 µM (inactive)
same,GI50,[44],19.1 µM (inactive)
same,GI50,[45],19.5 µM (inactive)
same,GI50,[46],20.3 µM (inactive)
same,GI50,[47],17.8 µM (inactive)
same,GI50,[48],27.3 µM (inactive)
same,GI50,[49],22.5 µM (inactive)
same,GI50,[50],15.2 µM (inactive)
same,GI50,[51],24.6 µM (inactive)
same,GI50,[52],21 µM (inactive)
same,GI50,[53],26.9 µM (inactive)
same,GI50,[54],34.3 µM (inactive)
same,GI50,[55],16.2 µM (inactive)
same,GI50,[56],21.8 µM (inactive)
same,GI50,[57],28.1 µM (inactive)
same,GI50,[58],5350 nM (inactive)
same,GI50,[59],34.2 µM (inactive)
